According to PubChem BioAssay (NCI):
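Values below derive from 48-hour exposures of cells grown in 96-well plates, with endpoints linearly interpolated between the two concentrations bracketing the appropriate inhibition level. GI50 is the concentration that inhibits growth by half. TGI marks complete inhibition of growth.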

What was measured:
Test in all cases: NCI anticancer screen, dose series, 48 h
ACHN renal = test system: ACHN renal
CAKI-1 renal = test system: CAKI-1 renal
NCI-H460 lung = test system: NCI-H460 lung
OVCAR-3 ovarian = test system: OVCAR-3 ovarian
SK-OV-3 ovarian = test system: SK-OV-3 ovarian
CCRF-CEM leukemia = test system: CCRF-CEM leukemia
HT29 colon = test system: HT29 colon
T-47D breast = test system: T-47D breast

SMILES | GI50 (ACHN renal) [µM] | TGI (ACHN renal) [µM] | GI50 (CAKI-1 renal) [µM] | TGI (CAKI-1 renal) [µM] | GI50 (NCI-H460 lung) [µM] | TGI (NCI-H460 lung) [µM] | GI50 (OVCAR-3 ovarian) [µM] | TGI (OVCAR-3 ovarian) [µM] | GI50 (SK-OV-3 ovarian) [µM] | TGI (SK-OV-3 ovarian) [µM] | GI50 (CCRF-CEM leukemia) [µM] | TGI (CCRF-CEM leukemia) [µM] | GI50 (HT29 colon) [µM] | TGI (HT29 colon) [µM] | GI50 (T-47D breast) [µM] | TGI (T-47D breast) [µM]
CC1=C(C(=O)Nc2ccc(Cl)c(Cl)c2)C(c2cccc(O)c2)NC(=S)N1 (configuration not stated) | 9.23 | 19.7 | 14.4 | 38.5 | 13.5 | 21.4 | 5.69 | 12.5 | 10 | 20.4 | – | – | – | – | – | –
COc1cc2c(cc1C)NC(=O)/C2=C/c1c(C)nc2sc(C)cn12 | > 100 | > 100 | 52 | > 100 | 45.7 | > 100 | 74.7 | > 100 | > 100 | > 100 | 53.4 | > 100 | > 100 | > 100 | 64.4 | > 100
O=C(/C=C/c1ccc2c(c1)OCO2)c1ccccc(=O)c1O | – | > 100 | – | 24.1 | – | 41.7 | – | > 100 | – | – | – | 3.93 | – | 26.3 | – | 64.6
Cc1ccc(S(=O)(=O)N2C/C(=C\c3cc(F)cc(F)c3)C(=O)/C(=C/c3cc(F)cc(F)c3)C2)cc1 | 0.232 | 0.573 | 0.367 | 2.4 | 0.742 | 2.91 | 0.408 | 1.27 | 2.3 | 7.53 | 0.0748 | 0.951 | 0.215 | 0.544 | 1.77 | 6.59
N=C1N=Nc2nc(C3(c4nc5n(c4O)C(=N)N=N5)Cc4ccccc4C3=O)c(O)n21 (configuration not stated) | – | > 100 | – | > 100 | – | > 100 | – | > 100 | – | > 100 | – | > 100 | – | > 100 | – | > 100
CCN1CCN(Cc2ccc3cc(C(=O)Nc4cc(NC(=O)c5ccc6c(c5)OCCO6)ccc4F)ccc3n2)CC1 | 0.0274 | 0.267 | 0.018 | 0.103 | 0.037 | 0.563 | 0.0567 | 0.766 | 0.0341 | 1.14 | 0.118 | 2.54 | 0.0528 | 11.9 | 0.0451 | 23
C#CCOc1c(OC)cc(C(=O)/C(C)=C/c2cccc(N=[N+]=[N-])c2)cc1OC | 0.682 | > 100 | 0.247 | > 100 | 0.329 | 20.2 | 0.0519 | 0.291 | 0.674 | > 100 | 0.117 | > 100 | 0.0576 | 73.4 | – | –
C[C@H]1[C@H](C)CC[C@]2(C(=O)O)CC[C@]3(C)C(=CC[C@@H]4[C@@]5(C)CC[C@H](OC(=O)/C=C\c6ccc(O)cc6)C(C)(C)[C@@H]5CC[C@]43C)[C@H]12 | 2.89 | 12.1 | 3.71 | 15.6 | 2.23 | 10.9 | 3.05 | 21.2 | 11.9 | 26.5 | – | – | 4.87 | 19.5 | – | –
O=C1C=CC(=O)N1CCCCCCCCCCN1C(=O)C=CC1=O | 4.85 | 16.8 | 9.19 | 25.2 | 33.3 | > 100 | 4.1 | 15.1 | > 100 | > 100 | 4.05 | > 100 | 4.67 | 26.7 | 15.3 | 40.7
Cn1c2ccccc2c(=S)c2cc(NC(=O)CCCCC(=O)Nc3ccc4c(c3)c(=S)c3ccccc3n4C)ccc21 | – | > 100 | – | > 100 | – | > 100 | – | > 100 | – | > 100 | – | > 100 | – | > 100 | – | > 100
COc1ccc2oc(-c3ccc(Cl)cc3)c(N3CCN(C)CC3)c2c1 | 1.73 | 3.7 | 1.57 | 3.27 | 1.94 | 4.16 | 1.95 | 4.37 | 2.17 | 4.99 | 1.71 | 4.06 | 1.42 | 3.32 | 2.32 | 6.78
COC(=O)/C(Br)=C/c1c[nH]c2ccc(Br)cc12 | 11.8 | 43.2 | 12.9 | 29.1 | 17.6 | 36.9 | 16.2 | 66.9 | 17.7 | 53.9 | 4.87 | 22.8 | 11 | 24.8 | 11.1 | 24.5
COc1cc2c(/C=C3/C(=O)Nc4c3ccc3ccccc43)c(Cl)[nH]c2cc1C | 0.0261 | 6.92 | 0.00894 | – | 0.0244 | > 21.8 | 0.00854 | 0.0294 | 0.0364 | > 50 | – | – | 0.0246 | > 50 | > 50 | > 50
O=C(Nc1cccc(-n2cc(-c3ccncc3)c(-c3ccc(O)c(Cl)c3)n2)c1)Nc1ccc(Cl)c(C(F)(F)F)c1 | 2.64 | 10.9 | 2.02 | 7.33 | 2.56 | 9.51 | – | – | 3.14 | 9.82 | 1.77 | 6.31 | 3.39 | 11.3 | 2.07 | 6.83
COc1ccc(/C=C/C(=O)c2ccc(NC(=O)CSc3nnc(-c4cc(OC)c(OC)c(OC)c4)o3)cc2)cc1 | 1.72 | 3.22 | – | – | 2 | 3.85 | 1.78 | 3.38 | 2.42 | 5.68 | 1.84 | 4.56 | 1.83 | 3.62 | 2.05 | 5.08
O=C(Nc1ncc(Cc2ccc(Cl)cc2)s1)c1ccc2c(c1)OCCO2 | 0.0645 | > 54.5 | 0.0547 | 39 | 0.0404 | 38.7 | 0.0335 | 0.398 | 0.183 | 92.9 | 0.0639 | > 100 | 0.171 | > 43.4 | – | –
CC(=O)O[C@@H]1CC(=O)O[C@@H]2C[C@@H](CC/C(Cl)=C/C/C=C\1C)O[C@@H]2CO | > 25 | > 25 | > 25 | > 25 | > 25 | > 25 | – | > 10.6 | > 25 | > 25 | – | – | > 25 | > 25 | – | –
COc1ccc2c(c1)CC[C@@H]1[C@@H]2CC[C@]2(C)c3c(cc(C(=O)c4ccccc4)c4sccc34)C[C@@H]12 | > 100 | > 100 | > 100 | > 100 | > 100 | > 100 | > 100 | > 100 | > 100 | > 100 | > 100 | > 100 | > 100 | > 100 | – | –
COc1ccc(OC)c2c3c(ncc12)-c1cc2c(cc1C3)OCO2 | 2.97 | > 100 | > 100 | > 100 | 5.6 | > 100 | 26.9 | > 100 | > 100 | > 100 | > 100 | > 100 | – | – | > 100 | > 100
CNC(=S)N/N=C(/C)CCC/C(C)=N/NC(=S)NC | – | > 100 | – | > 100 | – | > 100 | – | > 93.2 | – | > 100 | – | – | – | > 100 | – | > 100
Cc1ccc(C2CC(c3cccc(Nc4ccncc4)c3)=NN2c2ccc(Cl)cc2)cc1 (configuration not stated) | 1.63 | 2.99 | 1.51 | 2.97 | 1.72 | 3.34 | 1.69 | 3.06 | 1.65 | 3.17 | 2.64 | 7.66 | 1.86 | 3.9 | – | –
CCOC(=O)C1=C(N)Oc2cc(OC)ccc2C1c1ccc(F)c(F)c1 (configuration not stated) | 5.74 | 19.8 | – | – | 1.01 | 15.2 | 0.497 | 6.09 | 3.66 | 16.4 | 2.26 | 19.7 | 0.481 | 11 | 1.72 | 20
Nc1nn(C(=O)Nc2ccc(Cc3ccccc3)cc2)c2ccccc12 | 1.69 | 33.4 | 21.1 | 58 | 0.409 | 13 | 6.23 | 63.1 | 36.9 | > 100 | – | – | 2.39 | 17.6 | 1.55 | > 100
C#Cc1ccc(-n2c(/C=C/c3ccc4ccccc4n3)nc3ncccc3c2=O)cc1 | – | – | 0.501 | 2.69 | 0.776 | 2.91 | 0.317 | 0.905 | 0.351 | 1.08 | – | – | 0.375 | 1.13 | 0.366 | 1.28
NS(=O)(=O)c1ccc(NCc2cnc3ccccc3c2)cc1 | – | > 100 | – | > 100 | – | > 100 | – | > 100 | – | > 100 | – | – | – | > 100 | – | > 100
